Data set [1] can be described thus: HPLC retention time measurement (reverse-phase C18). The data set is classed as physicochemical. As to the method:
The retention time of the peptide was measured on a Waters HPLC system equipped with an analytical reverse-phase WATERS C18 column (4.6 × 250 mm). The peptide detected at 220 and 280 nm was eluted with a gradient of acetonitrile (containing 1% TFA) from 5% to 95% at a flow rate of 1 mL/min [22].

Data set [2] relates to P. aeruginosa PAO1. The data set is classed as cell-based, Pseudomonas aeruginosa. The following applies: PAO1. An outline of the steps: (§1)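 Broth microdilution: log-phase cultures diluted to OD600 ~0.001 were treated with two-fold peptide dilutions and incubated overnight at 37 °C, then read at 630 nm. MBC was the lowest concentration giving no growth when wells at or above MIC were plated.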

Data set [3] has as its system S. aureus USA300 LAC. Briefly: Membrane depolarization, DiBAC4(3). The data set is classed as cell-based, Staphylococcus aureus. The following applies: 12.5 µM. As to the method: Bacteria surfaces are negative and cationic peptides are able to neutralize the negative charge, thereby reducing membrane potential. To test this possibility, we evaluated the peptides against S. aureus USA300 LAC using a fluorescent indicator dye, the DiBAC4(3) (Figure 5).
The overnight culture of S. aureus USA300 LAC was grown in TSB media to the exponential phase. Cells were then pelleted and washed with PBS twice, and re-suspended in twice the volume of PBS containing 25 mM glucose for 15 min at 37 °C. For membrane depolarization measurements, 250 nM (final concentration) of the dye DiBAC4(3) (bis-(1,3-dibutylbarbituric acid) trimethine oxonol (ANASPEC, Fremont, CA, USA) was added, and vortexed gently. Ninety microliters of the energized bacteria solution were then added in a 96-well microtiter plate (Corning COSTAR). The plate was immediately placed into a FLUOstar Omega (BMG LABTECH Inc., Cary, NC, USA) microplate reader and fluorescence was measured for 20 min. Once the readings are stabilized, 10 μL of peptide solution were added and the fluorescence readings were continued for another 40 min. Measurements were done at an excitation and emission wavelengths of 485 and 520 nm, respectively. Triton X-100 (0.1%) was included as a positive control.

The subject of data set [4] is S. aureus USA300 LAC. The data set can be described thus: Disruption of 24 h established biofilms (XTT). The note with it: 12.5 µM, highest concentration tested, 24 h treatment. The data set is classed as cell-based, Staphylococcus aureus. The protocol: We also compared the effects of the peptides on established biofilms (24 h). […] When cells are alive (in the absence of peptide), the cell-permeant calcein-AM dye could enter the cells and gave green color as a consequence of the removal of acetoxymethyl (AM) esters by intracellular esterase (Figure 7A). When the cells were dead due to membrane damage by the peptide, the red dye ethidium homodimer (non-membrane permeable) could enter the cell and become red by binding to nucleic acids (Figure 7B).
The antibiofilm activity of the peptide against 24 h established biofilms was evaluated as previously described. In short, S. aureus USA300 LAC (10^5 CFU/mL) was made from exponential phase bacteria in TSB media and 180 μL were distributed to each well of the microtiter plate (Corning Costar Cat No. 3595, Amsterdam, The Netherlands). The plates were incubated at 37 °C for 24 h to form a biofilm. Culture treated with water served as a positive control while media without bacterial inoculation served as the negative control. Media were then pipetted out and the attached biofilms were washed with 1× PBS to remove the planktonic bacteria. Each well of the plate was then filled with 20 μL of 10× peptide solution and 180 μL of fresh TSB media and the plates were further incubated at 37 °C for 24 h. Media were then pipetted out and the wells were washed with 1× PBS to remove planktonic cells. The live cells in biofilms were estimated by XTT assay as mentioned above.
A general note: Tetrazolium dyes change colour on reduction, which living cells bring about.

In data set [5] the test system is B. subtilis 167. The data set is classed as cell-based, Bacillus subtilis. The following applies: 167. An outline of the steps:
as §1

For data set [6], the system named is S. aureus USA300 LAC. Briefly: Inhibition of biofilm attachment (XTT). The following applies: concentration series, Figure 6A. The data set is classed as cell-based, Staphylococcus aureus. An excerpt: Antimicrobial effects of the peptides are different on diverse forms of bacteria. The free and motile forms cultivated in laboratories are the planktonic bacteria onto which the peptides and antibiotics can have direct effects. However, the activity of the microbicides can be reduced to the biofilm forms where bacteria are less exposed and hidden inside the shield. The development of the biofilms starts with the attachment of the individual cells on the substratum followed by biofilm growth and maturation into more solid biomass. We tested the ability of WW295 and WW298 in fighting the biofilms of S. aureus USA300 LAC at the two stages. […] These 96-well commercial plates were pre-treated commercially with tissue culture to enhance cell adhesion.
This experiment was performed to measure the ability of the peptide to inhibit bacterial attachment, the initial step for biofilm formation. In short, an overnight culture of S. aureus USA300 was grown in TSB media to an optical density (600 nm) of ∼1.0. […] Live cells in the biofilms were then quantitated using XTT [2,3-bis(2-methyloxy-4-nitro-5-sulfophenyl)-2H-tertazolium-5-carboxanilide] assay by following the manufacturer’s instructions with modifications. […] Absorbance at 450 nm (only media with XTT containing wells served as the blank) was obtained using a Chromate^TM microtiter plate reader. […]

Data set [7] has as its system E. faecium VRE. The data set is classed as cell-based. The following applies: VRE. An outline of the steps:
as §1

For data set [8], the system named is S. aureus USA300 LAC. The data set is classed as cell-based, Staphylococcus aureus. The following applies: USA300. An outline of the steps:
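Broth microdilution with log-phase cultures diluted to OD600~0.001 and two-fold peptide dilutions, incubated overnight at 37 °C and read at 630 nm. MBC taken by plating clear wells at or above MIC. Physiological saline or human serum was present for the whole experiment.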

No end group written: not given here.

As to RKIWWWWL [WW295], in data set [1] (reverse-phase HPLC C18), the “hydrophobicity implied by retention time (in words)” value is listed as “slightly higher hydrophobicity”. Moreover, the “HPLC (tr, min)” value in data set [1] (reverse-phase Waters C18 4.6 × 250 mm, acetonitrile (1% TFA) gradient 5% to 95%, 1 mL/min, detection 220 and 280 nm, taken as measure of hydrophobicity) turned out to be 12.453 min. In data set [2], the “Minimal Inhibitory Concentration (MIC), PA” value lay in the range of 25 to 50 µM. Besides, in data set [3], the “membrane depolarization (DiBAC4(3) fluorescence)” value was “less active in depolarizing the membranes”. In data set [4], the “disruption of established biofilms (24 h)” value is on record as “did not disrupt MRSA biofilms significantly”. Besides, the “Minimal Inhibitory Concentration (MIC), BS” value in data set [5] amounted to 12.5 µM. The “effect on surface adherence of MRSA (in words)” value in data set [6] was “did not show any effects”. In data set [7], the “Minimal Inhibitory Concentration (MIC), VRE” value was 6.25 µM. In data set [8], the “MIC, +150 mM NaCl” value was 3.1 µM; the “MIC, +10% Human Serum” value was 12.5 µM; the “MIC, TSB” value was determined as 3.1 µM.

The record behind these values is publication PMC7600788, “Sequence Permutation Generates Peptides with Different Antimicrobial and Antibiofilm Activities” (Pharmaceuticals, 2020).
